Molecules are shown by their SMILES. Values joined by “and” are separate entries in the source; they are usually repeats but may differ in a detail not shown here. Equal entries are not always repeated. Some results are limits rather than exact numbers.

For orientation: IC50 means the concentration that gives 50% inhibition. A higher IC50 goes with a need for much substance.

The target in this test is Nonstructural protein 3 (Zika virus, UniProt A0A024AXB9). The test can be described thus: Functional biochemical assay to identify treatments for viral infectious disease that targets Zika NS2B-NS3 protease. Utilizing a direct enzyme activity measurement method, reading the fluorescence intensity is used to characterize the relative potency of inhibitors as IC50. More on the design: species or system PRVABC59.
Nonstructural protein 3, sequence (A0A024AXB9 whole entry): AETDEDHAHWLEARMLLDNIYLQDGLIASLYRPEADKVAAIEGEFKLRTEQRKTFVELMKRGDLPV
Compound `O=C1c2c(O)ccc([N+](=O)[O-])c2C(=O)c2c([N+](=O)[O-])ccc(O)c21` showed an IC50 of 57.1 µM.

Regarding `CNC(=O)C(=O)/C=C/c1ccccc1`, the half-inhibitory concentration (IC50) is over 198 µM.

`O=C(/C=C/c1ccccc1)C(=O)N1CCOCC1` came in with an IC50 of over 198 µM.

Turning to `O=C(Cn1sc2ccccc2c1=O)Nc1cccc(OCc2cn(CC(=O)Nc3ccccc3Oc3ccccc3)nn2)c1`, the IC50 worked out at 2.06 µM.

`O=C(C(=O)N1CCOCC1)c1c[nH]c2ccccc12` had an IC50 of over 99.5 µM.

`COc1ccc(S(=O)(=O)n2nc(OC(=O)c3cccc(-c4ccccc4Cl)c3)cc2N)cc1`: half-maximal inhibition (IC50) was put at 0.183 µM. That is a sub-micromolar value.

For `CCCCCC(=O)N[C@H](C(=O)NCc1cccc(CN)c1)c1ccc(OCc2ccccc2)cc1`, the IC50 is 73.3 µM and 80.1 µM.

Compound `CCCCCC(=O)N[C@H](C(=O)NCc1ccc(NC(=N)N)cc1)c1ccc(OCc2ccccc2)cc1` returned an IC50 of over 99.5 µM.

Take `NC(=O)c1cccc(NC(=O)[C@@H](NC(=O)c2ccc(Oc3ccc(C(F)(F)F)cc3)cc2)c2ccc(OCc3ccccc3)cc2)c1`: the IC50 is over 99.5 µM.

For the compound `O=C(Nc1ccc2c(c1)B(O)OC2)c1cccc(OCc2c(Cl)cccc2Cl)c1`, the half-maximal inhibitory concentration (IC50) was over 99.5 µM.

For the compound `COc1ccc(S(=O)(=O)Nc2ccc(C(=O)Nc3nc4ccccc4s3)cc2)cc1`, the IC50 was over 99.5 µM.

As to `CN(C)c1ccc(/C=C/C(=O)C(=O)N2CCOCC2)cc1`, the IC50 was found to be 83.2 µM.

The compound `CCCCCC(=O)N[C@H](C(=O)N1CCC(CN)CC1)c1ccc(OCc2ccccc2)cc1` came in with a half-maximal inhibitory concentration (IC50) of over 99.5 µM.

Turning to `CC1(C)OB(c2ccc(Cl)cc2CNC2CCCCC2)OC1(C)C`, the IC50 is over 99.5 µM.

Consider `O=C(/C=C/c1ccccc1)C(=O)N1CCN(CCc2ccccc2)CC1`, for which the midpoint of inhibition, the IC50, lay at 44.9 µM.

Take `O=C(/C=C/c1ccc(N2CCNCC2)cc1)C(=O)N1CCOCC1`: the IC50 was over 99.5 µM.

For `COc1cc(COc2cccnc2F)nc(N2CCNCC2)n1`, the IC50 was over 99.5 µM.

On to `c1ccc2c(CN3CC[C@H](c4c[nH]c5ccccc45)C3)c[nH]c2c1`, for which the 50% inhibitory concentration (IC50) is over 99.5 µM.

`CNC(=O)c1cc(C#N)ccc1NS(=O)(=O)c1ccc(Oc2ccccc2Cl)cc1` came in with a concentration for half-maximal inhibition (IC50) of over 99.5 µM.

In turn, `NC(=O)c1cn(C[C@H]2CCCN2c2ccnc3ccccc23)nn1` had a 50% inhibitory concentration (IC50) of over 99.5 µM.

In turn, `COc1cc(Cc2ccnc(N3CCNCC3)c2)nc(N2CCNCC2)n1` registered a half-inhibitory concentration (IC50) of over 99.5 µM.

In the case of `COc1cnccc1NC(=O)c1cccn(CC(C)C)c1=O`, the IC50 was over 99.5 µM.

`Nc1ccc(/C=C/C(=O)C(=O)N2CCN(CCc3ccccc3)CC2)cc1` displayed a half-inhibitory concentration (IC50) of over 99.5 µM.

`NCc1ccc(C[C@H](NC(=O)c2ccccc2)C(=O)N2CCCCC2)cc1` returned an IC50 of over 99.5 µM.

For the compound `CCCC[C@H](NC(C)=O)C(=O)N[C@H](C(=O)NCc1ccc(CN)cc1)c1ccccc1`, the IC50 is over 99.5 µM.

As to `CCn1ccnc(N2CC[C@H](c3cccnc3)C2)c1=O`, the IC50 was over 99.5 µM.

`CCn1ccnc(N2CC[C@H](c3ccn[nH]3)C2)c1=O`: the half-inhibitory concentration (IC50) was over 99.5 µM.

In turn, `CC(C)Nc1nc2ccc(C(=O)Nc3ccc4cn[nH]c4n3)cc2[nH]1` yielded a concentration for half-maximal inhibition (IC50) of over 99.5 µM.

Consider `N=C(N)NCCc1ccccc1B(O)O`, for which the IC50 is over 100 µM.

Consider `c1cc(CN2CCC(c3c[nH]c4ncccc34)CC2)c2[nH]ccc2c1`, for which the IC50 is over 99.5 µM.

As to `O=C(O)c1cccc(NC(=O)c2cccc(OCc3c(Cl)cccc3Cl)c2)c1`, the concentration for half-maximal inhibition (IC50) is over 99.5 µM.

For `N=C(N)NCCc1ccc(OC(=O)Nc2ccccc2)cc1`, the IC50 is over 100 µM.

Turning to `Cc1cc(NS(=O)(=O)c2ccc(Oc3ccccc3Cl)cc2)c(C(=O)NCC(F)(F)F)cc1F`, half-maximal inhibition (IC50) required 72.3 µM.

In the case of `CCCC[C@H](NC(=O)OC(C)(C)C)C(=O)N[C@H](C(=O)NCc1ccc(C(N)=O)cc1)c1ccc(OCc2ccccc2)cc1`, the 50% inhibitory concentration (IC50) was over 99.5 µM.

In turn, `CCn1ccnc(N2CC[C@@H](C(=O)NC)C2)c1=O` registered a concentration for half-maximal inhibition (IC50) of over 99.5 µM.

Consider `NCc1cccc(NC(=O)[C@@H](NC(=O)OCc2ccccc2)c2ccc(OCc3ccccc3)cc2)c1`, for which half-maximal inhibition (IC50) required 11.6 µM.

Compound `O=C(c1cc(Cl)ccc1NS(=O)(=O)c1ccc(Oc2ccccc2Cl)cc1)N1CCCC1` yielded a half-inhibitory concentration (IC50) of over 99.5 µM.

For the compound `COC(=O)c1cncc(OCc2cc(OC)nc(N3CCNCC3)n2)c1`, the IC50 was over 99.5 µM.

In turn, `CCn1ccnc(N2CCC(c3c[nH]c4ccccc34)CC2)c1=O` came in with an IC50 of over 99.5 µM.

Regarding `CNC(=O)C(=O)/C=C/c1ccccc1C`, the concentration for half-maximal inhibition (IC50) was over 198 µM.

As to `COC(=O)c1csc2cc(C(=O)N3CCCc4cc(CCN)ccc43)[nH]c12`, the IC50 is over 99.5 µM.

For `COc1cc(Cc2c(-c3ccc(F)cc3)noc2C)nc(N2CCNCC2)n1`, the concentration for half-maximal inhibition (IC50) amounted to 70.4 µM. In other words, the double-digit micromolar range.

Compound `CC(C)Nc1nc2ccc(C(=O)Nc3nnnn3-c3ccccn3)cc2[nH]1` gave a half-maximal inhibitory concentration (IC50) of over 99.5 µM.

Compound `CCn1ccnc(N2CC[C@@H](CC(N)=O)C2)c1=O` yielded an IC50 of over 99.5 µM.

As for `N=C(N)Nc1ccc(NC(=O)Oc2ccccc2)cc1`, the concentration for half-maximal inhibition (IC50) is over 100 µM.

In turn, `CC(C)(C)OC(=O)N[C@H](C(=O)Nc1cccc(CN)c1)c1ccc(OCc2ccccc2)cc1` showed a half-maximal inhibitory concentration (IC50) of over 99.5 µM.

Compound `N=C(N)NCCc1ccc(NC(=O)C(=O)/C=C/c2ccc(N)cc2)cc1` displayed an IC50 of 36.7 µM.

The compound `COc1cc(COc2cncc3ccccc23)nc(N2CCNCC2)n1` showed a concentration for half-maximal inhibition (IC50) of over 99.5 µM.

Regarding `CCn1ccnc(N2CC[C@H](c3cccc(C#N)c3)C2)c1=O`, the IC50 was over 99.5 µM.

For `CN(C)Cc1ccc(C(=O)Nc2cc(Cl)cc(C(=O)NC(C)(C)CO)c2)[nH]1`, the IC50 was over 99.5 µM.

As to `CCn1ccnc(N2CC[C@H](c3c[nH]c4ccccc34)C2)c1=O`, the IC50 is over 99.5 µM.

`N=C(N)Nc1ccc(OC(=O)Nc2ccccc2)cc1`: the half-inhibitory concentration (IC50) is over 100 µM.

For the compound `O=C(NCC1CC1)c1cc(Cl)ccc1NS(=O)(=O)c1ccc(Oc2ccccc2Cl)cc1`, the 50% inhibitory concentration (IC50) worked out at 76.3 µM. That is a double-digit micromolar value.

Compound `O=C(/C=C/c1ccccc1CN1CCCCC1)C(=O)N1CCOCC1` came in with a 50% inhibitory concentration (IC50) of over 198 µM.

Turning to `NCc1ccc(/C=C/C(=O)C(=O)N2CCOCC2)cc1`, the IC50 was found to be 79.4 µM.

`CCn1ccnc(N2CC[C@H](c3ccc(OC)nc3)C2)c1=O` came in with an IC50 of over 99.5 µM.

Consider `COc1cc(Cc2ccc3[nH]ncc3c2)nc(N2CCNCC2)n1`, for which the half-inhibitory concentration (IC50) is over 99.5 µM.

`CCn1ccnc(N2CC[C@H](C3CCOCC3)C2)c1=O` had an IC50 of over 99.5 µM.

For the compound `N=C(N)NCCc1ccc(NC(=O)Oc2ccccc2)cc1`, the IC50 was 87.4 µM and 21.5 µM.

For `CNC(=O)c1cc(Cl)ccc1NS(=O)(=O)c1ccc(Oc2ccccc2Cl)cc1`, the IC50 is over 99.5 µM.

Take `COc1ccc2nc(C(F)(F)F)nc(N3CCN(c4ccc(N)nc4)CC3)c2c1`: the 50% inhibitory concentration (IC50) was over 99.5 µM.

Consider `CCn1ccnc(N2CC[C@H](c3ccncc3)C2)c1=O`, for which the half-maximal inhibitory concentration (IC50) was over 99.5 µM.

Consider `c1ccc2c(CN3CCC[C@H](c4c[nH]c5ccccc45)C3)c[nH]c2c1`, for which the IC50 is over 99.5 µM.

The compound `CCCC[C@H](NC(C)=O)C(=O)N[C@H](C(=O)Nc1ccc(C(N)=O)cc1)c1ccc(OCc2ccccc2)cc1` gave an IC50 of over 99.5 µM.

In the case of `CC(C)(CO)NC(=O)c1cc(Cl)cc(NC(=O)c2cc(Cl)ccc2O)c1`, the IC50 was over 99.5 µM.

As for `C[C@@H](Cc1c[nH]c2ccccc12)N1CC[C@H](c2c[nH]c3ccccc23)C1`, the half-inhibitory concentration (IC50) was over 99.5 µM.

`CS(=O)(=O)c1ccc(N2CCNCC2)cc1NC(=O)c1cccc2ncccc12`: the IC50 is over 99.5 µM.

For the compound `CCn1ccnc(N2CC[C@H](C#N)C2)c1=O`, the IC50 was over 99.5 µM.

The compound `CCn1ccnc(N2CC[C@@H](CO)C2)c1=O` returned an IC50 of over 99.5 µM.

`N[C@H]1CCN(c2cccc(CNC(=O)c3ccc4[nH]c(=O)[nH]c4c3F)n2)C1` returned an IC50 of over 99.5 µM.

Compound `c1ccc2c(CN3CCC(c4c[nH]c5cccnc45)CC3)c[nH]c2c1` yielded a 50% inhibitory concentration (IC50) of 25.2 µM.

`CCn1ccnc(N2CC[C@@H](Cc3ccncc3)C2)c1=O` showed an IC50 of over 99.5 µM.

The compound `N=C(N)NCCc1ccc(NC(=O)Cc2ccccc2)cc1` returned an IC50 of over 198 µM.

In turn, `CCn1ccnc(N2CC[C@@H](CC#N)C2)c1=O` came in with an IC50 of over 99.5 µM.

Compound `CCCC[C@H](NC(C)=O)C(=O)N[C@H](C(=O)NCc1ccc(CN)cc1)c1ccc(OCc2ccccc2)cc1` registered a half-inhibitory concentration (IC50) of 60.4 µM. That is a double-digit micromolar value.

For `O=C(Cn1ccc2cccnc21)N1CC[C@H](c2c[nH]c3ccccc23)C1`, the IC50 was over 99.5 µM.

`CC(C)(C)OC(=O)N[C@H](C(=O)Nc1ccc(CN)cc1)c1ccc(OCc2ccccc2)cc1` registered a half-inhibitory concentration (IC50) of over 99.5 µM.

For `CN(C)Cc1cccc(C(=O)Nc2cc(Cl)cc(C(=O)NC(C)(C)CO)c2)c1`, the IC50 was over 99.5 µM.

Regarding `N=C(N)NCCc1cccc(B(O)O)c1`, the IC50 is over 100 µM.

`N=C(N)NCc1ccc(NC(=O)Oc2ccccc2)cc1` showed an IC50 of over 100 µM.

The compound `N=C(N)NCc1ccc(OC(=O)Nc2ccccc2)cc1` came in with a concentration for half-maximal inhibition (IC50) of over 100 µM.

With `N=C(N)NCCc1ccc(NC(=O)C(=O)c2ccccc2)cc1`, the IC50 is over 198 µM.

Regarding `Cc1nc([C@H]2CCCNC2)[nH]c1C(=O)Nc1ccccn1`, the IC50 is over 99.5 µM.

In turn, `c1ccc2c([C@H]3CCN(C[C@H]4CCOC4)C3)c[nH]c2c1` had an IC50 of over 99.5 µM.

For the compound `c1ccc2c([C@H]3CCN(CC[C@H]4CCCO4)C3)c[nH]c2c1`, the IC50 was over 99.5 µM.

`CCn1ccnc(N2CC[C@H](C(C)(C)C)C2)c1=O` registered a half-inhibitory concentration (IC50) of over 99.5 µM.

Regarding `CC1(C)OB(c2cccc(F)c2CNC2CCCC2)OC1(C)C`, the IC50 was over 99.5 µM.

For `c1ccc2c([C@H]3CCN(CCC4CCOCC4)C3)c[nH]c2c1`, the IC50 was over 99.5 µM.

In turn, `CC(C)Cn1cccc(C(=O)Nc2ccnc3ccccc23)c1=O` had a half-maximal inhibitory concentration (IC50) of over 99.5 µM.

In the case of `NCc1ccc(NC(=O)[C@@H](NC(=O)OCc2ccccc2)c2ccc(OCc3ccccc3)cc2)cc1`, the IC50 is over 99.5 µM.

`c1ccc2c(CN3CCC(c4c[nH]c5ncccc45)CC3)c[nH]c2c1` registered an IC50 of 33.9 µM.

`NS(=O)(=O)c1nc(C(=O)N2CCc3c(CO)cccc32)n2ccccc12` returned an IC50 of over 99.5 µM.

The compound `N=C(N)NCCc1ccc(NC(=O)c2ccccc2)cc1` yielded an IC50 of over 198 µM.

Compound `CCn1ccnc(N2CC[C@H](c3ccc(C#N)cc3)C2)c1=O` came in with an IC50 of over 99.5 µM.

In turn, `O=C(Nc1cccc(N2CCNCC2)c1)c1cccc2ncccc12` showed an IC50 of over 99.5 µM.

The compound `O=C(Nc1ccc(F)nc1)Oc1ccccc1` came in with an IC50 of over 100 µM.

Consider `COc1ccc(S(=O)(=O)n2nc(OC(=O)c3ccccc3)cc2N)cc1`, for which the IC50 came out at 1.16 µM.

For the origin of these results see ChEMBL document CHEMBL5604062, “ASAP - ZIKV NS2B-NS3 protease fluorescence dose response” (2024).
